Target: T1, Type-1 angiotensin II receptor (Homo sapiens, UniProt P30556)
T1 sequence (P30556 whole entry): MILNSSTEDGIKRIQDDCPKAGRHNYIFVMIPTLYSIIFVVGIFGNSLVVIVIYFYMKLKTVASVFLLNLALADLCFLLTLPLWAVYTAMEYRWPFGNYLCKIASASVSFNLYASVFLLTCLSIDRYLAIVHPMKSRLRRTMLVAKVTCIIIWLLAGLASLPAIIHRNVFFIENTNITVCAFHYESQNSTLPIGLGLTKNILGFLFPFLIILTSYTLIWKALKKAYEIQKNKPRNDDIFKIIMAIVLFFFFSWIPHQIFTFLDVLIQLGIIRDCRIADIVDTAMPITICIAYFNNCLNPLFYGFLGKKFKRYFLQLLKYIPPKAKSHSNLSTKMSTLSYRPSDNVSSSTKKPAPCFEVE
Experiment: agonist activity at AGTR1 – cell-based, uHTS hits, selectivity assay for APJ receptor agonist project, dose response (AID 488865)

EC50 [µM]	Compound
> 100	CCOC(=O)C1C(Cn2cnc3ccccc32)=NC(=O)NC1c1cc(C)ccc1C (centres undefined) [ethyl 6-(benzimidazol-1-ylmethyl)-4-(2,5-dimethylphenyl)-2-oxidanylidene-3,4-dihydro-1H-pyrimidine-5-carboxylate]
> 100	CCCCCCC1=Cc2c/c(=C3/NN=C(c4cc(OC)c(OC)c(OC)c4)O3)c(=O)oc2=CC1=O
> 100	COC(=O)C1C(Cn2cnc3ccccc32)=NC(=O)NC1c1cc(C)ccc1C (centres undefined) [methyl 6-(benzimidazol-1-ylmethyl)-4-(2,5-dimethylphenyl)-2-oxo-3,4-dihydro-1H-pyrimidine-5-carboxylate]
> 100	COc1ccc(CN=Nc2cc(C)nc3ccc(OC)cc23)c(OC)c1
